Experimental findings from ChEMBL document CHEMBL1165911, “Elaborate ligand-based pharmacophore exploration and QSAR analysis guide the synthesis of novel pyridinium-based potent beta-secretase inhibitory leads” (Bioorg Med Chem, 2010) are described below.

The target of assay [1] is T1, Beta-secretase 1 (Homo sapiens, UniProt P56817). The assay can be described thus: Inhibition of BACE1 at 50 uM after 2 hrs by FRET assay.
A further assay has as its target T2, Renin (Homo sapiens) (UniProt P00797).
T2 sequence (whole entry): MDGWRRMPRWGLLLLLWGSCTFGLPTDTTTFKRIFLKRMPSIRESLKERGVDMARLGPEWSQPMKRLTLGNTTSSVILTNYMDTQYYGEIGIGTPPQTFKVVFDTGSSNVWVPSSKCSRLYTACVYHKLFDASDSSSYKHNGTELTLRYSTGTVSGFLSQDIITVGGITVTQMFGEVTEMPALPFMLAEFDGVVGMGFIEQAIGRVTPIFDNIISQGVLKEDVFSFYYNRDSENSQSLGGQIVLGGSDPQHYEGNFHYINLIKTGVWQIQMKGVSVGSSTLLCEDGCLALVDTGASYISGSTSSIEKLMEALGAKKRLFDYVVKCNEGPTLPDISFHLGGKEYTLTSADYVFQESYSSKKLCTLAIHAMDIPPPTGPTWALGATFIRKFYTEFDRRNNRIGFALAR
The assay can be described thus: Inhibition of renin at 50 uM after 30 mins by fluorometric assay.

Assay [2] concerns the target T1, Beta-secretase 1.
Description: Inhibition of BACE1 after 2 hrs by FRET assay

pIC50: −log10 of the molar value.

T1 sequence (P56817 whole entry): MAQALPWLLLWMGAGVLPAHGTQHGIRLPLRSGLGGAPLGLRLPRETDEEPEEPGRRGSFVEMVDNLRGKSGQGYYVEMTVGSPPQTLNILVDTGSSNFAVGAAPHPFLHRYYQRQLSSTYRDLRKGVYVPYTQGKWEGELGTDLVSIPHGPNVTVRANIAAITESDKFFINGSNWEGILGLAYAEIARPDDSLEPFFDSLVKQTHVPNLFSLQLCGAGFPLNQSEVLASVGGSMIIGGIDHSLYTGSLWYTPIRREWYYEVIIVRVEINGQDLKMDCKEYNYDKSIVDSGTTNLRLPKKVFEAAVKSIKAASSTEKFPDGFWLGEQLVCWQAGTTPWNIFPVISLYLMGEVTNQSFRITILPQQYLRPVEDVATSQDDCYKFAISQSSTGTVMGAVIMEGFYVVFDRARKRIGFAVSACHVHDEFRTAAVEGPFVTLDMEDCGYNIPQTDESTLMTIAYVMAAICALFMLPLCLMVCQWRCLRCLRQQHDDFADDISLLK

With `O=C(C[n+]1ccccc1)Nc1cccc(NC(=O)c2ccccc2)c1`, the inhibition (usually the share of the control response that was lost under treatment) against Beta-secretase 1 [1] is 51%.

With `COc1ccc(NC(=O)c2cccc(NC(=O)C[n+]3cccc(C(=O)NCCc4ccccc4)c3)c2)cc1`, on Beta-secretase 1 [1], the inhibition came out at 44%.

Consider `Cc1ccc(C(=O)Nc2cccc(NC(=O)C[n+]3cccc(C(=O)NCCc4ccccc4)c3)c2)cc1`, for which the inhibition was found to be 100% against Beta-secretase 1 [1] and 22% on Renin (Homo sapiens). Besides, on Beta-secretase 1 [2], the negative-log IC50 (pIC50) (usually the negative decadic logarithm of the IC50, by convention in mol/L) is 5.66.

Consider `Cc1cccc(NC(=O)c2cccc(NC(=O)C[n+]3ccccc3)c2)c1`, for which, at Beta-secretase 1 [1], the inhibition came out at 61%.

`COc1ccc(NC(=O)c2cccc(NC(=O)C[n+]3ccccc3)c2)cc1`: the results for the inhibition on Beta-secretase 1 [1] and against Renin (Homo sapiens) were 100% and 0%, respectively. On Beta-secretase 1 [2], this compound gave a pIC50 of 5.43.

`Cc1ccc(C(=O)Nc2cccc(NC(=O)C[n+]3ccccc3)c2)cc1`: the inhibition turned out to be 68% against Beta-secretase 1 [1] and 0% against Renin (Homo sapiens). Besides, the pIC50 on Beta-secretase 1 [2] was 4.89.

As to `O=C(C[n+]1cccc(C(=O)NCCc2ccccc2)c1)Nc1cccc(C(=O)Nc2ccc(Cl)cc2)c1`, the results for the inhibition against Beta-secretase 1 [1] and against Renin (Homo sapiens) were 78% and 26%, respectively. This compound had a negative logarithm of the IC50 (pIC50) against Beta-secretase 1 [2] of 4.92.

With `Cc1ccc(NC(=O)c2cccc(NC(=O)C[n+]3cccc(C(N)=O)c3)c2)cc1`, the inhibition at Beta-secretase 1 [1] was 69%.

On Beta-secretase 1 [1], `O=C(C[n+]1cccc(C(=O)NCCc2ccccc2)c1)Nc1cccc(NC(=O)c2ccccc2)c1` gave an inhibition of 55%.

Turning to `COc1ccc(NS(=O)(=O)c2cccc(NC(=O)C[n+]3cccc(C(N)=O)c3)c2)cc1`, the inhibition at Beta-secretase 1 [1] worked out at 34%.

As for `Cc1ccc(NC(=O)c2cccc(NC(=O)C[n+]3cccc(C(=O)NCCc4ccccc4)c3)c2)cc1`, the figures for the inhibition at Beta-secretase 1 [1] and against Renin (Homo sapiens) were 72% and 26%, respectively. In addition, the pIC50 against Beta-secretase 1 [2] was 5.40.

Regarding `O=C(C[n+]1ccccc1)Nc1cccc(C(=O)Nc2ccc(Cl)cc2)c1`, the inhibition at Beta-secretase 1 [1] came to 100%; against Renin (Homo sapiens) it was 0%. The pIC50 on Beta-secretase 1 [2] was 6.00.

Compound `NC(=O)c1ccc[n+](CC(=O)Nc2cccc(NC(=O)c3ccccc3)c2)c1` registered an inhibition on Beta-secretase 1 [1] of 54%. Besides, at Beta-secretase 1 [2], the negative-log IC50 (pIC50) is 4.35.

Take `Cc1ccc(C(=O)Nc2cccc(NC(=O)C[n+]3cccc(C(N)=O)c3)c2)cc1`: the inhibition against Beta-secretase 1 [1] came out at 24%.

In turn, `Cc1ccc(NC(=O)c2cccc(NC(=O)C[n+]3ccccc3)c2)cc1` came in with an inhibition against Beta-secretase 1 [1] of 42%.

Turning to `COc1ccc(NC(=O)c2cccc(NC(=O)C[n+]3cccc(C(N)=O)c3)c2)cc1`, the inhibition is 100% on Beta-secretase 1 [1] and 0% against Renin (Homo sapiens). For the same compound, at Beta-secretase 1 [2], the negative-log IC50 (pIC50) was 5.72.

`Cc1cccc(NC(=O)c2cccc(NC(=O)C[n+]3cccc(C(N)=O)c3)c2)c1` registered an inhibition against Beta-secretase 1 [1] of 44%.

Take `Cc1ccc(S(=O)(=O)Nc2cccc(NC(=O)C[n+]3cccc(C(N)=O)c3)c2)cc1`: the inhibition against Beta-secretase 1 [1] came to 4%.

Turning to `COc1nc(NCCN2CCOCC2)nc(Nc2ccc(I)cc2)n1`, the negative logarithm of the IC50 (pIC50) against Beta-secretase 1 [2] was 4.00.

At Beta-secretase 1 [2], `Clc1ccc(/C=N/Nc2nc(NCc3ccc(Cl)cc3)nc(N3CCOCC3)n2)cc1` gave a negative logarithm of the IC50 (pIC50) of 4.00.

For the compound `Cc1cccc(NC(=O)c2cccc(NC(=O)C[n+]3cccc(C(=O)NCCc4ccccc4)c3)c2)c1`, the inhibition against Beta-secretase 1 [1] was determined as 58%.

Regarding `Cc1c(CC(=O)N[C@H](CCCNC(N)=O)C(=O)O)c(=O)oc2cc(O)ccc12`, on Beta-secretase 1 [2], the negative logarithm of the IC50 (pIC50) was 3.30.

Regarding `NC(=O)c1ccc[n+](CC(=O)Nc2cccc(C(=O)Nc3ccc(Cl)cc3)c2)c1`, at Beta-secretase 1 [1], the inhibition was 64%. At Beta-secretase 1 [2], the pIC50 is 4.52.

As to `Cc1cc(O)c2c(C)c(CC(=O)N[C@H](CCCNC(N)=O)C(=O)O)c(=O)oc2c1`, the pIC50 against Beta-secretase 1 [2] was 3.30.

Compound `CCCCc1ccc(Nc2nc3ccccc3nc2NS(=O)(=O)c2ccc(Cl)cc2)cc1` had a pIC50 at Beta-secretase 1 [2] of 4.00. Compared with the last compound, the pIC50 is 0.70 log units higher.

As for `Cc1ccc(S(=O)(=O)Nc2cccc(NC(=O)C[n+]3cccc(C(=O)NCCc4ccccc4)c3)c2)cc1`, the inhibition at Beta-secretase 1 [1] came to 36%.

At Beta-secretase 1 [2], `CCCc1cc(=O)oc2c(C)c(OCC(=O)NCC(=O)NCC(=O)O)ccc12` gave a negative-log IC50 (pIC50) of 4.00.

In the case of `COc1ccc(NS(=O)(=O)c2cccc(NC(=O)C[n+]3ccccc3)c2)cc1`, the inhibition on Beta-secretase 1 [1] amounted to 50%.

Consider `Cc1c(CC(=O)N[C@H](CCCNC(N)=O)C(=O)O)c(=O)oc2c(C)c(O)ccc12`, for which the negative-log IC50 (pIC50) against Beta-secretase 1 [2] is 3.30.

The compound `COc1ccc(C(=O)Nc2ccccc2C(=O)NC(CCSC)C(=O)NNC(=O)Sc2nc3ccccc3s2)cc1` (stereo unspecified) had a pIC50 on Beta-secretase 1 [2] of 4.30.

On to `CCc1cc(=O)oc2c(C)c(OC(=O)NCC(=O)NCC(=O)O)ccc12`, for which the negative-log IC50 (pIC50) on Beta-secretase 1 [2] is 3.30.

`O=C(NCCc1ccc(Cl)cc1)c1ccc(Cn2c(=S)[nH]c3ccc(N4CCOCC4)cc3c2=O)cc1` gave a negative-log IC50 (pIC50) against Beta-secretase 1 [2] of 4.00.

At Beta-secretase 1 [2], `Oc1ccc(-c2ccccc2)cc1CN1CCN(Cc2cc(-c3ccccc3)ccc2O)CC1` showed a negative-log IC50 (pIC50) of 4.00.

In turn, `Cc1cc(C)nc(NS(=O)(=O)c2ccc(Nc3nc(-c4ccc(C(C)C)cc4)cs3)cc2)n1` showed a negative-log IC50 (pIC50) at Beta-secretase 1 [2] of 3.00.

`C=CCn1c(SCC(=O)Nc2ccc(S(N)(=O)=O)cc2)nc2sc3c(c2c1=O)CCCC3` had a pIC50 against Beta-secretase 1 [2] of 4.00. Against the preceding compound, the pIC50 is 1.00 log units higher.

`NNC(=O)CN1C(CN2CCOCC2)=Nc2ccc(Br)cc2C1c1ccccc1` (stereo unspecified) showed a pIC50 on Beta-secretase 1 [2] of 4.00.

On Beta-secretase 1 [2], `O=C(NCc1ccccc1Cl)c1ccc(N2CC3CC(C2)c2cccc(=O)n2C3)c(NS(=O)(=O)c2ccc3c(c2)OCCO3)c1` (stereo unspecified) gave a pIC50 of 4.00.

Consider `COc1cccc2cc(C(=O)Nc3cc(Br)ccc3N3CCN(Cc4ccccc4)CC3)c(=O)oc12`, for which the pIC50 against Beta-secretase 1 [2] was 5.30.

In turn, `O=C(Nc1cc(Br)ccc1N1CCOCC1)c1cccc2ccccc12` gave a pIC50 against Beta-secretase 1 [2] of 4.70.

Consider `Oc1c(I)cc(I)cc1/C=N/Nc1nc(Nc2cccc3ccccc23)nc(N2CCOCC2)n1`, for which, on Beta-secretase 1 [2], the negative-log IC50 (pIC50) is 4.00.
